pIC50: −log10 of the molar value. Values joined by “and” are separate entries in the source; they are usually repeats but may differ in a detail not shown here. Identical values can stand only once. Like-named read-outs stand apart in the source and are kept apart here.
What was measured:
hIAPP1-37 = target: T1, hIAPP1-37 (Homo sapiens, UniProt P10997); assay: Thioflavin T fluorescence assay of fibril formation; type: biochemical
T1 construct: purchased Calbiochem (CalBiochem Calif., USA); host or cells: solid-phase chemical synthesis
T1 sequence (P10997 34-70 limits assumed): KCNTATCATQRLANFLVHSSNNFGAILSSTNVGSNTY
Method: Fibrillization of hIAPP1-37 was monitored by Thioflavin T dye binding assay. hIAPP1-37 stock solution was diluted to a final concentration of 4 μM in 10 mM sodium acetate buffer (pH 6.5) with or without inhibitor, and a final HFIP concentration of 1% (vol). […] In every measurement ThT was added to a final concentration of 3 μM and measurements were carried out using Perkin Elmer (excitation 450 nm, 2.5 nm slit; emission 480 nm 10 nm slit). […] Background was subtracted from all samples.
Thioflavin T (ThT) is commonly used for detecting the level of amyloid formation. hIAPP1-37 solution was prepared as described above. Following incubation in the presence or absence of phenol red and addition of 3 μM ThT to each sample, fluorescence was measured.
Fibrillization of hIAPP1-37 was monitored by Thioflavin T (ThT) dye binding assay, as described above, using an inhibitor concentration of 40 μM or 4 μM.

Caco-2 cells [1] = conditions: for recovery at experiment end point: 90 minutes
Method: Cells at passage 68 were used in these studies. Caco-2 cells were grown in high D-glucose DMEM medium supplemented with 1% L-glutamine, 1% nonessential amino acids, 1% sodium pyruvate, 1% penicillinstreptomycin and 10% fetal bovine serum.
Cells (passage 68) were harvested after 95% confluence and seeded at a density of 85,000 cells per polycarbonate membranes (0.4 μm pore size and a surface area of 0.33 cm^2) inserts. Cells on inserts were cultured for 10 days.
Transport studies: Test substances transport across Caco-2 monolayers was investigated in ‘apical to basolateral’ direction (n=2), at two time points (45 and 90 minutes).
Prior to the experiment, the culture medium was removed; cells were washed twice with 150 μl apical buffer and 600 μl basolateral buffer (containing 25 mM D-glucose, 20 mM HEPES biological buffer, 1.25 mM CaCl2, 0.5 mM MgCl2, adjusted to pH 7.4 with KOH) and were incubated for 30 minutes at 37° C., 45 RPM, with the same buffers.
Transport studies were performed at 37° C., with shaking at 45 RPM with either the tested compounds or standards (n=2). At each time point, aliquot of 120 μl Basolateral sample was drawn from each insert. For the radioactive marker Mannitol, 20 μl duplicate aliquots were drawn at each time point. […] At endpoint (90 minutes), the whole volume of the apical and basolateral chambers was collected.
Data Recording: Substance samples and propranolol standard samples were analyzed using HPLC (see below for analyses details). [^3H]-Mannitol samples were subjected to analysis by liquid scintillation counting in a Packard TopCount NXT. The results were obtained in CPM.
Papp Calculations: Apparent permeability coefficients (Papp) of tested compounds and standards were calculated from the following equation: Papp(t)=(CtV/t)×(1/C0A) where C0 is the initial concentration (at t=0) of the compound on the donor (apical side); Ct is the concentration at the calculated time point (t) in the receiver (basolateral) chamber; V is receiver chamber volume; A is the surface area of the monolayer; and t is the elapsed time.
Compound and standards Recovery: At the last time point of the experiment (90 minutes), basolateral and apical amounts values were measured and recovery (%) of the tested compound or standard was calculated according to the following equation: Recovery %=(C90 min×Vbasolateral)+(C90 min×Vapical)/C0×Vapical
HPLC analyses: HPLC analyses were performed using a Waters 2790 HPLC system, equipped with PDA 996 detector (Waters).

Caco-2 cells [2] = tested on: Caco-2 cells
Method: LDH Assay: 100 μl of cells supernatant were removed from the basolateral chamber at the end of transport experiment. LDH release was assayed according to the manufacturer instructions using cytotoxicity detection kit (Roche, Cat. No. 1 644 793).
Specifically, an increase in the amount of dead or plasma membrane-damaged cells results in release of lactate dehydrogenase (LDH) enzyme to the surrounding buffer. The enzymatic activity of LDH is measured in a colorimetric assay. A surfactant that damages cell membranes is used as a positive control.
Short term damage—LDH Release: LDH activity in basolateral buffer from inserts of each group (n=2) was measured in a colorimetric assay as described hereinabove. The positive control glycocholate was previously assayed and is shown for comparison.

βTC-tet cells = assay: MTT cell viability assay, hIAPP cytotoxicity; type: cell-based, murine; conditions: 4 μM hIAPP1-37, 24 hrs, phenol red in medium, 50% without phenol red
Method: βTC-tet cells [Fleischer, N., Chen C., Surana, M., Leiser, M., Rossetti, L., Pralong, W. and Efrat, S. (1998) Functional analysis of a conditionally transformed pancreatic beta-cell line, Diabetes 47, 1419-1425] or PC12 cells (ATCC # CRL-1721) were plated on 24-well plates (2-10^5/well) or on 96-well plates (1-10^4/well) respectively, and allowed to adhere for 24 hours. Synthetic hIAPP1-37 stock solution was diluted to a final concentration of 4 μM in serum free growth medium [Fleischer (1998) Supra] containing DMEM with or without phenol red. Immediately following dilution, samples were centrifuged at 4° C. for 20 minutes at 20,000 g, and the supernatant was bubbled with nitrogen for 30 min to evaporate residual HFIP. Cells were washed twice with PBS and incubated with the supernatant for 24 hrs. MTT (Sigma M-2128) was then added for 3 hrs, followed by addition of lysis buffer and incubation over night. Assay was effected according to Manufacturer's instructions. Samples were read at 570 nm. Cell viability was calculated in comparison to cells incubated in the absence of hIAPP in medium with or without phenol red, respectively.
The ability of phenol red to modulate cytotoxicity effect of hIAPP amyloid assemblies on pancreatic β cells in culture was addressed. […]

hIAPP20-29 [3] = target: T2, hIAPP20-29 (Homo sapiens, UniProt P10997); assay: Transmission electron microscopy of fibrils; type: biochemical; conditions: hIAPP20-29 with inhibitor, 24 hr incubation
T2 construct: purchased Peptron, Inc. (Taejeon, Korea); host or cells: solid-phase chemical synthesis
Method: 10 μL samples of hIAPP22-29 or hIAPP20-29 from the aggregation assay, and hIAPP1-37 from the fluorescence assay were placed on 400-mesh copper grids (SPI supplies, West Chester Pa.) covered by carbon-stabilized Formvar film. After 1 minute, excess fluid was removed, and the grids were negatively stained with 2% uranyl acetate in water for another two minutes. Samples were viewed in a JEOL 1200EX electron microscope operating at 80 kV.
Samples of hIAPP22-29 and hIAPP20-29 taken from the aggregation assay (described in Example 3) were visualized using transmission electron microscopy. As is shown in FIG. 4a, distinct and well-defined amyloid fibers were observed 3 and 72 hours after initiation of aggregation in both samples of the hIAPP22-29 peptide, with a minor increase in fiber density and width following 72 hours. […] Same results were obtained with the hIAPP20-29 peptide after 24 hr incubation (FIG. 4b) in the presence of phenol red inhibitor. No inhibition was observed using phenolphthaleine under the same conditions and fibrillar structures were evident on the TEM grid.

hIAPP20-29 [4] = target: T2, hIAPP20-29; assay: Kinetic aggregation assay (turbidity); type: biochemical; conditions: 1 mM peptide, 40 mM inhibitor, Tris pH 7.2, 4% DMSO
Method: Stock solutions of hIAPP22-29 and hIAPP20-29 peptide were prepared by dilution of lyophilized peptides into 10 mM Tris-HCl (pH 7.2) buffer to a final concentration of 1 mM peptide and 4% DMSO. Turbidity data were collected at 405 or 560 nm at room temperature. A buffer solution containing the same amount of DMSO as the tested samples was used as blank. Turbidity was measured using disposable UVette cuvettes (Eppendorf, Germany) and a Scinco S-3100 spectrophotometer.
The core amyloidogenic fragments of hIAPP (hIAPP22-29, hIAPP20-29) aggregate in an aqueous solution. Such an aggregation behavior was served as a preliminary assay for amyloid formation.
In order to evaluate the ability of phenol red to inhibit amyloid formation, the aggregation of 1 mM hIAPP22-29 and hIAPP20-29 (SEQ ID NO: 1 and NO: 2, respectively) was examined in the absence or presence of 40 mM phenol red. To verify the specificity of phenol red molecule towards hIAPP core peptides, a very similar molecule—phenolphthaleine, which differs only by the lack of the sulfon group, was used as control (FIG. 7).

[5] = Pharmacokinetics in mice, intravenous administration; conditions: for PF3 Concentration / Phenol red Concentration, Analyzed: mice plasma
Method: (§1) Male mice (ICR), 5 weeks of age, weighing 27-32 grams at study initiation were used. A total of sixteen animals were tested in each set of experiments, divided to 8 groups, 2 animals in each group. Animals were acclimatized for 5-7 days. All test animals was kept under environmental controlled housing conditions throughout the entire study period, and maintained in accordance with Harlan Biotech Israel (HBI) approved standard operation procedures (SOP's).
A single slow intravenous injection (over a period of approximately one minute) was administered into one of the tail veins of each animal.
Dosing solutions were prepared in a co-solvent vehicle system containing DMA:PEG400:Saline 25:40:35 respectively (e.g., each 1 ml consists of 0.25 ml DMA, 0.4ml PEG400 and 0.35 ml Saline).
Dosing solutions were freshly and identically prepared prior to dosing, as deemed necessary.
Blood samples were taken at the following time points: pre-dosing (time 0), 5, 15, 30, 60, 90, 120 and 300 minutes post dosing, two animals per time point, by retro orbital sinus bleeding under CO2 anesthesia. Individual blood samples of at least 0.4 ml whole blood were collected into pre-labeled lithium heparin coated tubes. Plasma separation was made as soon as possible after collection, by centrifugation at 2500G for 15 minutes. After centrifugation supernatant was transferred to eppendorff tube (1.5 ml) pre-labeled with the appropriate animal number, study number and time post dosing. Plasma samples were kept at about −20° C.
(§2) Analysis was performed in Analyst Ltd., using LC/MS/MS method.
(§3) The chromatographic separation was achieved on a Gemini C1 8 column (50×2.0 mm, 5 μm), using 50:50 acetonitrile:water solution containing 0.1% NH4OH as the mobile phase, at a flow rate of 0.3 ml/minute.
(§4) All samples were analyzed by the Micromass Quattro Pt triple-quadrupole mass selective detector equipped with an electrospray ionization source. […] The system includes a 2795 HT Waters HPLC and Masslynx v.4.0 software. Quanlynx v.4.0 software was used for calculation.
(§5) For calculation of phenol red concentration in samples, weighted linear regression curves (1/x^2) were calculated from response of analyte versus calibration standard concentration. The weighted linear regression correlation coefficient was grater than 0.99.
(§6) K Parameters Calculations: PK parameters were calculated using Winnonlin Pro 4.01 software (Pharsight).

[6] = Pharmacokinetics in mice, oral administration
Method: as §1
Administration to test animals was performed orally, following food deprivation of about 3.5-5 hours, by the use of gavage needle made of stainless steel which was introduced directly to the stomach.
Dosing solutions were prepared as described hereinabove for the I.V. administration.
Blood samples were taken, as described hereinabove, at the following time points: 30, 45, 60, 120, 180, 240, 300 and 360 minutes post dosing, two animals per time point, by retro orbital sinus bleeding under CO2 anesthesia.
as §2, §3, §4, §5, §6

[7] = 4 μM hIAPP1-37, 40 μM inhibitor
[8] = I.V. PF3, 5 minutes post dosing
[9] = I.V. PF3, 15 minutes post dosing
[10] = I.V. PF3, 30 minutes post dosing
[11] = I.V. PF3, 60 minutes post dosing
[12] = I.V. PF3, 125 minutes post dosing
[13] = I.V. PF3, 300 minutes post dosing
[14] = phenol red plasma profile, mice, I.V. PF3
[15] = phenol red plasma profile, mice, I.V. PF3 .25 mg/kg

In the case of `COc1ccc(C2(c3ccc(OC)cc3)OS(=O)(=O)c3ccccc32)cc1` [PF4, dimethoxy phenol red], the “inhibition of hIAPP1-37 fibril formation (ThT fluorescence)” value (shortened to “inhibition of hIAPP1-37 fibril formation”) (hIAPP1-37; [7]) was “reduced inhibition effect relatively to the phenol red molecule”, the “inhibition of hIAPP1-37 fibril formation” value (hIAPP1-37; 40 μM inhibitor, sample not centrifuged) was “more evident” and the “recovery at experiment end point” value (Caco-2 cells [1]; 0.2 mM concentration) was 105%±31%. The “recovery at experiment end point” value (Caco-2 cells [1]; 1 mM concentration) was 123%±48%, the “detection at the basolateral chamber” value (Caco-2 cells [1]; both tested concentrations) was “not detected” and the “cytotoxicity (LDH activity in basolateral buffer)” value (Caco-2 cells [2]; CaCo-2 inserts after transport experiment) was “negligible”.
In the case of `Nc1c(/N=N/c2ccc(-c3ccc(/N=N/c4cc(S(=O)(=O)O)c5ccccc5c4N)cc3)cc2)cc(S(=O)(=O)O)c2ccccc12` [congo red, Congo red, reference compound], the “inhibition of hIAPP1-37 fibril formation” value (hIAPP1-37; green tea polyphenols experiment, 48 hr to 12 days) was “inhibitory effect”.
With `O=S1(=O)OC(c2ccc(O)cc2)(c2ccc(O)cc2)c2ccccc21` [phenol red] the pIC50 (hIAPP1-37; 4 μM hIAPP1-37, gradual concentration of phenol red, read-out: IC50 of inhibition of fibril formation (ThT fluorescence)) was ~5.60, the “inhibition level of fibril formation (ThT end point)” value (hIAPP1-37; phenol red concentration of 20 μM and above, after one week of incubation) was “about 90%” and the “cell viability (MTT)” value (βTC-tet cells) was 80%.
In the case of `O=C1OC(c2ccc(O)cc2)(c2ccc(O)cc2)c2ccccc21` [phenolphthaleine], the “fibril morphology by TEM” value (hIAPP20-29 [3]) was “No inhibition”, the “fibril morphology by TEM” value (hIAPP20-29 [3]; listed as phenolephthaleine) was “no inhibition effect” and the “aggregation of hIAPP20-29 (turbidity)” value (hIAPP20-29 [4]) was “No inhibition effect”.
With diacetoxy phenol red [PF3] the “PF3 Concentration” value [5, 8] was “n/d (not detected and denotes a concentration lower than 5 ng/ml)”, the “Phenol red Concentration, Analyzed” value [5, 8] was >20 µg/mL and the “PF3 Concentration” value [5, 9] was “n/d (not detected and denotes a concentration lower than 5 ng/ml)”. For the same molecule, the “Phenol red Concentration, Analyzed” value [5, 9] was >20 µg/mL, the “PF3 Concentration” value [5, 10] was “n/d (not detected and denotes a concentration lower than 5 ng/ml)” and the “Phenol red Concentration, Analyzed” value [5, 10] was >20 µg/mL. For the same molecule, the “PF3 Concentration” value [5, 11] was “n/d (not detected and denotes a concentration lower than 5 ng/ml)”, the “Phenol red Concentration, Analyzed” value [5, 11] was 4.12 µg/mL and 4.33 µg/mL and the “PF3 Concentration” value ([5]; I.V. PF3, 90 minutes post dosing) was “n/d (not detected and denotes a concentration lower than 5 ng/ml)”. For the same molecule, the “PF3 Concentration” value [5, 12] was “n/d (not detected and denotes a concentration lower than 5 ng/ml)”, the “Phenol red Concentration, Analyzed” value [5, 12] was 0.76 µg/mL and the “PF3 Concentration” value [5, 13] was “n/d (not detected and denotes a concentration lower than 5 ng/ml)”. For the same molecule, the “Phenol red Concentration, Analyzed” value [5, 13] was 0.22 µg/mL and 0.29 µg/mL, the “presence of the pro-drug PF3 in plasma” value ([5]; mice, following I.V. administration, even after 5 minutes) was “not observed” and the “AUC (area under the curve)” value [5, 14] was 2232 µg·min/mL. For the same molecule, the “Volume of distribution (Vss)” value [5, 14] was 0.367 L/kg, the Clearance [5, 15] was 11 mL/min/kg and the “Half Life” value [5, 15] was 40 min. For the same molecule, the “inhibition of hIAPP1-37 fibril formation” value (hIAPP1-37; [7]) was “reduced inhibition effect relatively to the phenol red molecule”, the “recovery at experiment end point” value (Caco-2 cells [1]; 1 mM concentration) was 53%±5% and the permeability grading (Caco-2 cells [1]; CaCo-2, apical to basolateral) was “low-medium range”. The “Papp values compared to standards” value (Caco-2 cells [1]; apical to basolateral, 45 and 90 minutes) was “higher than mannitol (a marker of paracellular transport) Papp values and lower than propranolol”, the detection of transport (Caco-2 cells [1]; higher concentration (0.1 mM)) was “detected” and the “detection in the basolateral chamber” value (Caco-2 cells [1]; lower concentration (0.02 mM), 45 and 90 minutes) was “not detected”. For the same molecule, the “presence of the pro-drug PF3 in plasma” value ([6]; following oral administration) was “not detected”, the intestinal absorption ([6]; oral administration) was “clearly absorbed in the intestine” and the “Half Life” value ([6]; phenol red plasma profile, P.O. PF3 […]) was 32 min. The “F, Bioavailability” value ([6]; phenol red plasma profile, P.O. PF3 […] vs I.V.) was 16% and the “LDH activity in basolateral buffer” value (Caco-2 cells [2]; 0.1 mM, only one of the inserts, not repeated, attributed to a factor other than PF3) was “increase in LDH activity was detected”.
